Article PMC5291098, “Molecular mutagenesis of ppGpp: turning a RelA activator into an inhibitor” (Scientific Reports, 2017)
Entries after “also recorded” stand apart in the source; their conditions may differ.

What was measured:
[1] = target: E. faecalis SAS RelQ (RelQEf) (Enterococcus faecalis, UniProt Q830U9); assay: Inhibition of E. faecalis SAS RelQ ppGpp synthesis; format: biochemical; details: for Effect on RelQEf activity (in words): concentrations up to 1 mM
Excerpt: In E. coli, ppGpp is synthesized by the multi-domain RSHs RelA and SpoT, however, numerous single-domain RSHs – Small Alarmone Synthetases (SAS) – are widely distributed across bacterial taxa[3]. […] Therefore we tested the effects of DR-4250, DR-M014 and DR-5163 on RelQEf activity (Supplementary Figure 2).
Detailed description of experimental procedures can be found in Supplementary Text. Biochemical assays utilize in vitro translation[58] and stringent response[15] systems from E. coli purified components. Experiments were performed in HEPES:Polymix[58] buffer with either 5 (for enzymatically assembled initiation complexes) or 15 mM (for vacant 70 S, as well as non-enzymatically assembled programmed ribosomes) Mg^2+. Expression and purification of E. faecalis RelQ was performed as per Gaca (2015) and colleagues. GTPase and ppGpp synthesis were followed using TLC separation and radiochemical detection of ^3H-labelled nucleotides. Multiple round in vitro transcription assays were performed as per Bernardo et al.[49] with minor modifications. Inhibition efficiency (IC50) was calculated using 4-parameter logistic model (Hill equation) as per Sebaugh[60].
RelQ activity0.4 RelQ activity0.4 RelQ activity0.4
Supplementary Figure 2 | Inhibition of E. faecalis SAS RelQ by DR-4250, DR-
M014 and DR-5163 is inefficient. The reaction mixture contains 0.25 µM RelQEf,
300 µM [3H] GDP, 0.5 mg/ml BSA, 100 µM ppGpp, 1 mM ATP in Hepes:Polymix at […]

[2] = target: T1, E. coli RelA (Escherichia coli, UniProt P0AG20); assay: Inhibition of RelA activated by programmed 'starved' ribosomal complexes containing deacylated A-site tRNAPhe; format: biochemical; details: 30 nM RelA, 0.5 μM 70S, 2 μM tRNAPhe, 2 μM tRNAiMet, 2 μM mRNA(MF), 100 μM ppGpp, 0.3 mM [3H]GDP, 1 mM ATP, 5 mM Mg2+; read-out: IC50, 70S(MF:tPhe)
T1 construct: made in house
Procedure: Screening was performed in a cost-efficient way using RelA activated by the presence of vacant 70S ribosomes and 100 μM ppGpp. However, to become fully active, RelA requires the presence of ‘starved’ ribosomal complexes containing deacylated A-site tRNA[17]. We therefore prepared ‘starved’ complexes using model mRNA coding for fMetPhe (MF) dipeptide and purified deacylated tRNAs tRNA^Phe and tRNA^fMeti[42] to test the efficiency of DR-4250 and DR-M014 in this more physiologically relevant system (Fig. 4a,b).
Figure 4 Functional studies of DR-M014 and DR-4250 with programmed ribosomal complexes. (a,b) Inhibition of RelA activated by starved ribosomal complexes containing deacylated A-site tRNA^Phe. […]
Both EF-G GTPase reaction and ppGpp synthesis by RelA were followed by TLC analysis followed by scintillation counting according to Mechold and colleagues, with modifications1. […] TLC was run in buffer, plates dried, cut into sections guided by UV-shadowing and 3H radioactivity was quantified by scintillation counting in Optisafe-3 (Fisher) scintillation cocktail on Perkin Elmer Tricarb 2810TR counter. Conversion of substrate to product was quantified as described in Shyp et al. (2012)2. […]
Screening: all experiments were performed in HEPES:Polymix, Mg2+ of 5 mM, 37 °C. […] Inhibition efficiency (IC50) was calculated using 4-parameter logistic model (Hill equation) as per Sebaugh (2011)3. […]

Chain of E. faecalis SAS RelQ (RelQEf) (Q830U9 entry or part of it): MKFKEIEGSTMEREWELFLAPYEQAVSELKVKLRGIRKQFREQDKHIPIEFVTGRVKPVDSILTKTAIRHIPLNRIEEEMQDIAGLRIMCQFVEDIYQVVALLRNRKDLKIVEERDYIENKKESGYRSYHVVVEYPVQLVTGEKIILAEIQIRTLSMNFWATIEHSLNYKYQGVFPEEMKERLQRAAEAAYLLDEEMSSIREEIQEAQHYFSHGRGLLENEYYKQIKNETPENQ
T1 sequence (P0AG20 whole entry): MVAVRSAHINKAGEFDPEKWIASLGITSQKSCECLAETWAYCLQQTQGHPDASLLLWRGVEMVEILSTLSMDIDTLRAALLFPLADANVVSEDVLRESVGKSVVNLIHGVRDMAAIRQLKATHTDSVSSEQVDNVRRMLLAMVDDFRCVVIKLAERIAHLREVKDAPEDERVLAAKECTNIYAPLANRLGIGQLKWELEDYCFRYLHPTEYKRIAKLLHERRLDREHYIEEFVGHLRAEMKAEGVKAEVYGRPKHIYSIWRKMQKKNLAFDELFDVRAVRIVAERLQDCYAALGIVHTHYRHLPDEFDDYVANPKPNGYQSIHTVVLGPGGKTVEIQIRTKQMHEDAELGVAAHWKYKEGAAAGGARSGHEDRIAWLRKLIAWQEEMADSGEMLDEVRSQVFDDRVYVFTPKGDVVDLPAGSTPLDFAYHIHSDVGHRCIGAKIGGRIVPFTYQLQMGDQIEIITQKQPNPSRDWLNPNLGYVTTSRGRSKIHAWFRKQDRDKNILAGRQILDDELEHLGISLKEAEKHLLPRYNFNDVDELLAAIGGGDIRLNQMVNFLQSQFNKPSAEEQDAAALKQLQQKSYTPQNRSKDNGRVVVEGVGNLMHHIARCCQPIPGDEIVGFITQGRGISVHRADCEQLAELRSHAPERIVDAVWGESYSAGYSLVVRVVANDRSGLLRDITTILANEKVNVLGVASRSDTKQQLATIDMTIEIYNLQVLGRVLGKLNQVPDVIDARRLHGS

Structure (SMILES)	IC50 ([1]; 0.25 µM RelQEf, 300 µM [3H]GDP, 100 µM ppGpp, 1 mM ATP, 37°C) [µM]	Effect on RelQEf activity (in words) [1]	IC50 [2] [µM]
Nc1nc2c(ncn2C2OC(COP(=O)(O)OCP(=O)(O)O)C(OP(=O)(O)OCP(=O)(O)O)C2O)c(=O)[nH]1 (centres unmarked) [DR-4250, Guanosine 3’,5’-di(phosphonomethoxyphosphate)]	235 ± 19	inefficient	41 ± 7
Nc1nc2c(ncn2C2CCN(C(=O)P(=O)(O)O)CC2)c(=O)[nH]1 [DR-M014]		inefficient; also recorded: almost inactive	155 ± 14
